# Experimental data published in patent US5220050A, “Peptide mimetic compounds useful as platelet aggregation inhibitors” (G. D. Searle & Co., priority 1991, dated 1993).
# Assays:
# [1] = test system: collagen induced platelet aggregation; assay: Inhibition of ex vivo collagen induced aggregation after administration to dogs; type: in vivo, dogs (Beagles); settings: dog, intragastric or intravenous; for inhibition in vivo at 10 mg/kg / inhibition in vivo at 30 mg/kg / inhibition in vivo at 20 mg/kg: Canis lupus familiaris, Platelet, read-out: Max % Inhibition
# Experimental: The purpose of this assay is to determine the effects of antiplatelet compounds on ex vivo collagen induced platelet aggregation when administered either intravenously or orally to dogs.
# Pretreatment (control) blood samples are drawn from either conscious or anesthetized dogs (Beagles) and centrifuged to prepare platelet rich plasma (PRP). Aggregatory response to collagen is measured in an aggregometer and used as Control.
# In Table B the designation "NT" means "Not Tested". Also in Table B, two readings given in a single box indicate that two trials, rather than a single trial, were run for that particular compound in that particular assay.
# [2] = test system: Platelet Aggregation in Dog PRP; assay: In-Vitro Platelet Aggregation in PRP (ADP induced); type: cell-based; settings: for IC50: Canis lupus familiaris, Platelet, in-vitro
# Experimental: Healthy male or female dogs were fasted for 8 hours prior to drawing blood; then 30 ml whole blood was collected using a butterfly needle and 30 cc plastic syringe with 3 ml of 0.129 M buffered sodium citrate (3.8%). The syringe was rotated carefully as blood was drawn to mix the citrate. Platelet-rich plasma (PRP) was prepared by centrifugation at 975×g for 3.17 minutes at room temperature, allowing the centrifuge to coast to a stop without braking. The PRP was removed from the blood with a plastic pipette and placed in a plastic capped, 50 ml Corning conical sterile centrifuge tube which was held at room temperature. Platelet poor plasma (PPP) was prepared by centrifuging the remaining blood at 2000×g for 15 minutes at room temperature allowing the centrifuge to coast to a stop without braking. The PRP was adjusted with PPP to a count of 2-3×10^8 platelets per ml. 400 μl of the PRP preparation and 50 μl of the compound to be tested or saline were preincubated for 1 minute at 37° C. in a BioData aggregometer (BioData, Horsham, Pa.). 50 μl of adenosine 5'diphosphate (ADP) (50 μm final concentration) was added to the cuvettes and the aggregation was monitored for 1 minute. All compounds are tested in duplicate. Results are calculated as follows:
# Percent of control=[(maximal OD minus initial OD of compound) divided by (maximal OD minus initial OD of control saline)]×100. The % inhibition=100-(percent of control).
molecule,measurement,setting,value
CC(CC(=O)O)NC(=O)CCCCc1ccc(C(=N)N)cc1 (stereo not drawn) [3-[[5-[4-(Aminoiminomethyl)phenyl]-1-oxopentyl]amino]butanoic acid],inhibition in vivo at 10 mg/kg,[1]; dose 10 mg/Kg,80%
same,Duration,[1]; dose 10 mg/Kg,5 h
same,IC50,[2],1.2 µM
C=CC(CC(=O)OCC)NC(=O)CCCCc1ccc(C(=N)N)cc1 (stereo not drawn) [ethyl 3-[[5-[4-(aminoiminomethyl)phenyl]-1-oxopentyl]amino]-4-pentenoate],inhibition in vivo at 30 mg/kg,[1]; dose 30 mg/Kg,100%
CCOC(=O)CC(CC(C)C)NC(=O)CCCCc1ccc(C(=N)N)cc1 (stereo not drawn) [ethyl 3-[[5-[4-(aminoiminomethyl)phenyl]-1-oxopentyl]amino]-5-methylhexanoate],inhibition in vivo at 30 mg/kg,[1]; dose 30 mg/Kg,100%
same,Duration,[1]; dose 30 mg/Kg,> 6 h
"CCOC(=O)CC(NC(=O)CCCCc1ccc(C(=N)N)cc1)c1ccc2c(c1)OCO2 (stereo not drawn) [ethyl β-[[5-[4-(aminoiminomethyl)phenyl]-1-oxopentyl]amino]-1,3-benzodioxole-5-propanoate]",inhibition in vivo at 10 mg/kg,[1]; dose 10 mg/Kg,100%
same,Duration,[1]; dose 10 mg/Kg,5 h
"CCOC(=O)CC(NC(=O)CCCCc1ccc(C(=N)N)cc1)c1cc(OC)cc(OC)c1 (stereo not drawn) [ethyl β-[[5-[4-(aminoiminomethyl)phenyl]-1-oxopentyl]amino]-3,5-dimethoxybenzenepropanoate]",inhibition in vivo at 20 mg/kg,[1]; dose 20 mg/Kg,70%
same,Duration,[1]; dose 20 mg/Kg,4 h
CCOC(=O)CC(NC(=O)CCCCc1ccc(C(=N)N)cc1)c1cccnc1 (stereo not drawn) [ethyl β-[[5-[4-(aminoiminomethyl)phenyl]-1-oxopentyl]amino]-3-pyridinepropanoate],inhibition in vivo at 10 mg/kg,[1]; dose 10 mg/Kg,100%
same,inhibition in vivo at 20 mg/kg,[1]; dose 20 mg/Kg,100%
same,Duration,[1]; dose 20 mg/Kg,> 24 h
CCOC(=O)CC(NC(=O)CCCCc1ccc(C(=N)N)cc1)c1ccc(OCC)cc1 (stereo not drawn) [ethyl β-[[5-[4-(aminoiminomethyl)phenyl]-1-oxopentyl]amino]-4-ethoxybenzenepropanoate],inhibition in vivo at 20 mg/kg,[1]; dose 20 mg/Kg,0%
same,Duration,[1]; dose 20 mg/Kg,0 h
"CCOC(=O)CC(NC(=O)CCCCc1ccc(C(=N)N)cc1)c1ccc(-c2ccccc2)cc1 (stereo not drawn) [ethyl β-[[5-[4-(aminoiminomethyl)phenyl]-1-oxopentyl]amino][1,1'-biphenyl]-4-propanoate]",inhibition in vivo at 30 mg/kg,[1]; dose 30 mg/Kg,0%
CCOC(=O)CC(Cc1ccccc1)NC(=O)CCCCc1ccc(C(=N)N)cc1 (stereo not drawn) [ethyl β-[[5-[4-(aminoiminomethyl)phenyl]-1-oxopentyl]amino]benzenebutanoate],inhibition in vivo at 20 mg/kg,[1]; dose 20 mg/Kg,30%
same,Duration,[1]; dose 20 mg/Kg,1.5 h
CCOC(=O)CC(CCc1ccccc1)NC(=O)CCCCc1ccc(C(=N)N)cc1 (stereo not drawn) [ethyl β-[[5-[4-(aminoiminomethyl)phenyl]-1-oxopentyl]amino]benzenepentanoate],inhibition in vivo at 30 mg/kg,[1]; dose 30 mg/Kg,0%
N=C(N)c1ccc(CCCCC(=O)NC(CC(=O)O)c2ccccc2F)cc1 (stereo not drawn) [β-[[5-[4-(aminoiminomethyl)phenyl]-1-oxopentyl]amino]-2-fluorobenzenepropanoic acid],IC50,[2],5.2 µM
N=C(N)c1ccc(CCCCC(=O)NC(CC(=O)O)c2ccccn2)cc1 (stereo not drawn) [β-[[5-[4-(aminoiminomethyl)phenyl]-1-oxopentyl]amino]-2-pyridinepropanoic acid],IC50,[2],2.3 µM
"N=C(N)c1ccc(CCCCC(=O)NC(CC(=O)O)c2ccc(Cl)c(Cl)c2)cc1 (stereo not drawn) [β-[[5-[4-(aminoiminomethyl)phenyl]-1-oxopentyl]amino]-3,4-dichlorobenzenepropanoic acid]",IC50,[2],6.8 µM
"COc1ccc(C(CC(=O)O)NC(=O)CCCCc2ccc(C(=N)N)cc2)cc1OC (stereo not drawn) [β-[[5-[4-(aminoiminomethyl)phenyl]-1-oxopentyl]amino]-3,4-dimethoxybenzenepropanoic acid]",IC50,[2],0.53 µM
"N=C(N)c1ccc(CCCCC(=O)NC(CC(=O)O)c2cc(Cl)cc(Cl)c2)cc1 (stereo not drawn) [β-[[5-[4-(aminoiminomethyl)phenyl]-1-oxopentyl]amino]-3,5-dichlorobenzenepropanoic acid]",IC50,[2],6 µM
"COc1cc(OC)cc(C(CC(=O)O)NC(=O)CCCCc2ccc(C(=N)N)cc2)c1 (stereo not drawn) [β-[[5-[4-(aminoiminomethyl)phenyl]-1-oxopentyl]amino]-3,5-dimethoxybenzenepropanoic acid]",IC50,[2],0.33 µM
N=C(N)c1ccc(CCCCC(=O)NC(CC(=O)O)c2cccc(C(F)(F)F)c2)cc1 (stereo not drawn) [β-[[5-[4-(aminoiminomethyl)phenyl]-1-oxopentyl]amino]-3-(trifluoromethyl)benzenepropanoic acid],IC50,[2],7 µM
N#Cc1cccc(C(CC(=O)O)NC(=O)CCCCc2ccc(C(=N)N)cc2)c1 (stereo not drawn) [β-[[5-[4-(aminoiminomethyl)phenyl]-1-oxopentyl]amino]-3-cyanobenzenepropanoic acid],IC50,[2],1.4 µM
N=C(N)c1ccc(CCCCC(=O)NC(CC(=O)O)C2CC=CCC2)cc1 (stereo not drawn) [β-[[5-[4-(aminoiminomethyl)phenyl]-1-oxopentyl]amino]-3-cyclohexene-1-propanoic acid],IC50,[2],4 µM
N=C(N)c1ccc(CCCCC(=O)NC(CC(=O)O)c2cccc(F)c2)cc1 (stereo not drawn) [β-[[5-[4-(aminoiminomethyl)phenyl]-1-oxopentyl]amino]-3-fluorobenzenepropanoic acid],IC50,[2],1.3 µM
COc1cccc(C(CC(=O)O)NC(=O)CCCCc2ccc(C(=N)N)cc2)c1 (stereo not drawn) [β-[[5-[4-(aminoiminomethyl)phenyl]-1-oxopentyl]amino]-3-methoxybenzenepropanoic acid],IC50,[2],1.3 µM
N=C(N)c1ccc(CCCCC(=O)NC(CC(=O)O)c2cccc(Oc3ccccc3)c2)cc1 (stereo not drawn) [β-[[5-[4-(aminoiminomethyl)phenyl]-1-oxopentyl]amino]-3-phenoxybenzenepropanoic acid],IC50,[2],5.1 µM
N=C(N)c1ccc(CCCCC(=O)NC(CC(=O)O)c2cccnc2)cc1 (stereo not drawn) [β-[[5-[4-(aminoiminomethyl)phenyl]-1-oxopentyl]amino]-3-pyridinepropanoic acid],IC50,[2],0.12 µM
N=C(N)c1ccc(CCCCC(=O)NC(CC(=O)O)c2ccc(OCc3ccccc3)cc2)cc1 (stereo not drawn) [β-[[5-[4-(aminoiminomethyl)phenyl]-1-oxopentyl]amino]-4-(phenylmethoxy)benzenepropanoic acid],IC50,[2],1.2 µM
N=C(N)c1ccc(CCCCC(=O)NC(CC(=O)O)c2ccc(C(F)(F)F)cc2)cc1 (stereo not drawn) [β-[[5-[4-(aminoiminomethyl)phenyl]-1-oxopentyl]amino]-4-(trifluoromethyl)benzenepropanoic acid],IC50,[2],4.3 µM
N=C(N)c1ccc(CCCCC(=O)NC(CC(=O)O)c2ccc(Br)cc2)cc1 (stereo not drawn) [β-[[5-[4-(aminoiminomethyl)phenyl]-1-oxopentyl]amino]-4-bromobenzenepropanoic acid],IC50,[2],3.1 µM
N=C(N)c1ccc(CCCCC(=O)NC(CC(=O)O)c2ccc(C(=O)O)cc2)cc1 (stereo not drawn) [β-[[5-[4-(aminoiminomethyl)phenyl]-1-oxopentyl]amino]-4-carboxybenzenepropanoic acid],IC50,[2],1.3 µM
N=C(N)c1ccc(CCCCC(=O)NC(CC(=O)O)c2ccc(Cl)cc2)cc1 (stereo not drawn) [β-[[5-[4-(aminoiminomethyl)phenyl]-1-oxopentyl]amino]-4-chlorobenzenepropanoic acid],IC50,[2],2.8 µM
N#Cc1ccc(C(CC(=O)O)NC(=O)CCCCc2ccc(C(=N)N)cc2)cc1 (stereo not drawn) [β-[[5-[4-(aminoiminomethyl)phenyl]-1-oxopentyl]amino]-4-cyanobenzenepropanoic acid],IC50,[2],1.3 µM
CCOc1ccc(C(CC(=O)O)NC(=O)CCCCc2ccc(C(=N)N)cc2)cc1 (stereo not drawn) [β-[[5-[4-(aminoiminomethyl)phenyl]-1-oxopentyl]amino]-4-ethoxybenzenepropanoic acid],IC50,[2],0.4 µM
N=C(N)c1ccc(CCCCC(=O)NC(CC(=O)O)c2ccc(F)cc2)cc1 (stereo not drawn) [β-[[5-[4-(aminoiminomethyl)phenyl]-1-oxopentyl]amino]-4-fluorobenzenepropanoic acid],IC50,[2],3 µM
N=C(N)c1ccc(CCCCC(=O)NC(CC(=O)O)c2ccc(O)cc2)cc1 (stereo not drawn) [β-[[5-[4-(aminoiminomethyl)phenyl]-1-oxopentyl]amino]-4-hydroxybenzenepropanoic acid],IC50,[2],0.8 µM
N=C(N)c1ccc(CCCCC(=O)NC(CC(=O)O)c2ccc(Oc3ccccc3)cc2)cc1 (stereo not drawn) [β-[[5-[4-(aminoiminomethyl)phenyl]-1-oxopentyl]amino]-4-phenoxybenzenepropanoic acid],IC50,[2],2 µM
N=C(N)c1ccc(CCCCC(=O)NC(CCCCc2ccccc2)CC(=O)O)cc1 (stereo not drawn) [β-[[5-[4-(aminoiminomethyl)phenyl]-1-oxopentyl]amino]benzeneheptanoic acid],IC50,[2],7.1 µM
N=C(N)c1ccc(CCCCC(=O)NC(CCc2ccccc2)CC(=O)O)cc1 (stereo not drawn) [β-[[5-[4-(aminoiminomethyl)phenyl]-1-oxopentyl]amino]benzenepentanoic acid],IC50,[2],3 µM
βR-[[5-[4-(aminoiminomethyl)phenyl]-1-oxopentyl]amino]-1-naphthalenebutanoic acid,% Inhibition,[2]; test concentration 1 × 10^-5,5%
